Laboratory results: patent US11913884B2, “Visible light-activated dyes and methods of use thereof” (William Marsh Rice University, priority 2019, dated 2024)

Experiments:
[1] = tested on: differentiated 3T3-L1 adipocytes; experiment: Photoactivation and photobleaching in living adipocytes (CLSM); format: cell-based
Description: Super-resolution imaging based on sequential imaging of a specific region of labeled tissue or cell culture relies on the ability to modulate the fluorescence of fluorophores between dark and bright states (Bates et al., 2007, Sengupta et al., 2014). […] Furthermore, the photoactivation of SNile Red can be achieved using visible light, affording lower phototoxicity and better tissue penetration than use of UV light. […] A 488 nm laser was utilized to activate SNile Red, while a 561 nm laser was used for photobleaching. […] Following irradiation with the 488-nm laser for 80 s, a five-fold increase of fluorescence intensity was detected. Subsequently, photobleaching was performed in the same cells using the 561-nm laser. As shown in FIGS. 13B & 13D, the fluorescence intensity decayed to 10% of its maximum within 360 s continuous scanning. This photoswitching flexibility holds promise for SNile Red utilization in further photoactivatable localization microscopy (PALM) studies. Next, the utility of SNile Red for performing super-resolution imaging of lipid droplets was explored. […] Compared to the conventional widefield fluorescence image (FIG. 13B) and Differential interference contrast (DIC) image (FIGS. 13A-B), the PALM reconstruction outlines a pair of lipid droplets with a resolution beyond the optical diffraction limit (FIGS. 13B &13C). […]

[2] = Singlet oxygen quantum yield determination with DPBF; format: physicochemical; conditions: DCM, irradiation 615/30 nm, relative to methylene blue
Description: To determine whether a minimal one atom sulfur-for-oxygen substitution within fluorophores can lead to fluorescence quenching, thio-caged Nile Red (SNile Red, FIG. 1) was synthesized, in which a carbonyl group was replaced with a thiocarbonyl moiety. Treatment of Nile Red with Lawesson's reagent in refluxing benzene produced the desired SNile Red in a yield of 40%. […] Irradiation of SNile Red with red light (615 nm, 0.4 μW cm-2) led to the regeneration of fluorescent Nile Red in a high yield (FIG. 2A). […] The A556/A652 value, representing the ratio of the absorbance maxima of Nile Red and SNile Red, increased from 0.25 to 30 after desulfuration reaction (FIG. 2B). Upon irradiation with red light, the fluorescence intensity of the desulfurated material at 626 nm increased 280-fold, accompanied by a change in fluorescence from dark to red (FIG. 2C). To evaluate the proper light source for SNile Red photoactivation, SNile Red was irradiated with either 470 nm, 615 nm, or 850 nm light for different times and fluorescence intensities at 626 nm were recorded. […] To further characterize the photoactivated product of SNile Red, ^1H NMR and ESI-MS spectral changes were measured in the process of photoactivation (FIG. 2A). […]
Singlet oxygen quantum yields were calculated according to the literature (Bonacin et al., 2009, Adarsh et al., 2010, and Li et al., 2013). […]

singlet oxygen quantum yield [2]: 0.36
Compound: CCN(CC)c1ccc2nc3c4ccccc4c(=S)cc-3oc2c1 [SNile Red]
fluorescence intensity after photobleaching, of its maximum ([1]; 561-nm laser, within 360 s continuous scanning): 10%
increase of fluorescence intensity in cells ([1]; irradiation with 488-nm laser for 80 s): five-fold
